Data as given in patent US12558369B2, “Compositions and methods of treating Fanconi Anemia” (Dana-Farber Cancer Institute, Inc., priority 2015, dated 2026).
Entries after “also recorded” stand apart in the source; their conditions may differ.

Legend:
[1] = tested on: Fancd2−/− BM Stromal cells; assay: Colony forming capacity of bone marrow stromal cells; assay type: cell-based, mouse; conditions: 1 μM Mek-i
Protocol: FIG. 3. […] Fancd2+/+ stromal cells shown as a control. • B) Colony forming capacity of Fancd2−/− BM Stromal cells is improved by treatment with 1 μM Mek-i. • C) Immunoblot analysis showing deletion of Tgfbr1, Smad3 and p53 in murine Fancd2+/+ and Fancd2−/− stromal cells • D) Survival of Fancd2−/− stromal cells with deletion of Tgfbr1, Smad3 or p53 in presence of MMC. Error bars represent s.e.m.
FIG. 9. […] Representative image of colonies of Fancd2+/+ and Fancd2−/− cells incubated with or without 1 μM Mek inhibitor.
(§1) For survival assays, cells were seeded at a density of 1×10^3 cells per well in 96-well plates. After 72 hours of culture in indicated concentrations of MMC or post exposure of acetaldehyde, viability was assessed using CellTiterGlo reagent (Promega). In order to assess clonogenicity, cells were seeded at a low density (500-1000 cells per well) in 6-well plates and allowed to form colonies. The cells were then fixed in methanol/20% acetic acid and stained with 1% crystal violet. Colony formation was assessed by solubilizing crystal violet stain with methanol and quantifying UV absorbance for each condition.

Fancd2−/− stromal cells = assay: Immunoblot of phosphorylated Erk1/2 in bone marrow stromal cells; assay type: cell-based, mouse
Protocol: FIG. 2. Characterization of FA murine primary bone marrow stromal fibroblast. • A) Survival of Fancd2+/+ or Fancd2−/− stromal cells in the presence of MMC. Data are shown in triplicate. […] (Left panel) Active mouse Tgfβ1 serum levels in the culture supernatant of Fancd2+/+ or Fancd2−/− stromal cells were evaluated by ELISA. (Right panel) qRT-PCR analysis of Tgfb1 mRNA expression. Data are shown the average of three independent experiments. Error bars represent s.e.m. • C) Immunoblots of phosphorylated Erk1/2 in stromal cells treated with Tgfβ for the indicated time.
FIG. 3. […] Error bars represent s.e.m.
Human FA cells EUFA316 were grown in RPMI1640 (Life Technologies) supplemented with 10% fetal calf serum. Fancd2^+/+ and Fancd2^−/− bone marrow stromal cells were established by culturing whole bone marrow in DMEM with 10% FBS. Fancd2^−/− stromal cells were complemented with human FANCD2 by retroviral transduction of FANCD2 cDNA in pMMP-PURO vector, followed by selection in puromycin. Whole cell extracts were prepared by lysing cells in radioimmunoprecipitation assay buffer (50 mmol/L Tris, pH 7.3, 150 mmol/L NaCl, 1 mmol/L EDTA, 1% Triton X-100, 0.5% Na-deoxycholate, and 0.1% SDS) with complete protease inhibitor, NaVO4, and NaF.

U2OS cells [2] = assay: NHEJ reporter assay; assay type: cell-based, human; conditions: template reporter assay
U2OS cells [3] = assay: Immunoblot of DNA-PK phosphorylation; assay type: cell-based, human
[4] = tested on: EUFA316 (FA-G fibroblasts); assay: MMC sensitivity survival assay of FA cells with TGFβ pathway inhibitors; assay type: cell-based, human
Protocol: FIG. 1. TGFβ pathway disruption enhances FA cellular growth. • A) RIGER P value analysis to identify top candidate genes. • B) Clonogenic survival of GM6914 (FA-A fibroblasts) and FANCA-corrected GM6914 cells after shRNA mediated knockdown of SMAD3. Cells were treated with increasing doses of MMC and plated for 10-12 days. The average of two experiments is presented; error bars represent s.e.m.
as §1
as §1, with “3-6 days” for “72 hours”, “Colonies were counted after” for “Colony formation was assessed by solubilizing”, “staining.” for “stain with methanol and quantifying UV absorbance for each condition.”

Fancd2-deficient mice = assay: pIpC physiological stress-induced bone marrow failure, LT-HSC DNA damage; assay type: in vivo, mouse
Description: FIG. 13. […] Mice were pretreated in vivo with either no Tgfβ inhibitor, the neutralizing antibody to Tgfβ 1, 2, 3, or the Tgfβ receptor kinase inhibitor, Galunisertib.

[5] = tested on: primary HSPCs from bone marrow of FA patients; assay: Colony forming assay of primary CD34+ bone marrow cells from FA patients; assay type: cell-based, human; conditions: methylcellulose, colonies after 10 days
Description: (§2) (A) Hierarchical clustering and heat-map of the expression of TGF-β pathway genes in human FA and non-FA bone marrow samples using gene set enrichment analysis. (B-F) Colony forming assays using primary CD34+ bone marrow cells from five FA patients. Cells were transduced with lentiviruses encoding shControl, shTP53 or shSMAD3 followed by selection for puromycin resistance and then plated in methylcellulose cultures or the cells were directly plated in methylcellulose cultures containing GC1008 for colony growth. The hematopoietic colonies were counted after 10 days in culture. (G-I) Colony forming assays using FA-like CD34+ cells from human cord blood. As shown in the schematic (G), FA-like CD34+ cells were generated by transducing human cord blood CD34+ cells with lentivirus encoding shFANCD2. […] Hematopoietic colonies were counted after 10-14 days in culture (I). (J) Colony forming assay of FA-like CD34+ cells with GC1008 treatment. Hematopoietic colonies were counted after 10-14 days in culture. […] Human cells were analyzed in the peripheral blood at 2 weeks post transplantation. […] Representative images (L) and quantification (M) of γH2AX foci in cord blood CD34+ cells transduced with lentivirus encoding shFANCD2 or shControl. […] Cells were then analyzed for γH2AX foci by immunofluorescence. Thirty to hundred cells with more than 5 foci were counted for each sample. […]

[6] = tested on: FA-like CD34+ cells from human cord blood; assay: Colony forming assay of FA-like CD34+ cells; assay type: cell-based; conditions: GC1008 10 μg/mL, colonies after 10-14 days
Description: as §2, with “blood.” for “blood. As shown in the schematic (G), FA-like CD34+ cells were generated by transducing human cord blood CD34+ cells with lentivirus encoding shFANCD2.”, “(J) Colony forming assay of FA-like CD34+ cells with GC1008 treatment.” left out
(§3) (Dataset: GSE16334). […] Cells were cultured in methylcellulose medium post MMC treatment (2 h at 100 ng/mL) and hematopoietic colonies were counted after 10 days in culture. […] Hematopoietic colonies were counted after 10-14 days in culture. […]

[7] = tested on: FA-like CD34+ cells in NSG mice; assay: In vivo xenograft assay of FA-like CD34+ cells; design: species or system mouse; conditions: 10 mg/kg, 3 doses per week for 2 weeks, peripheral blood at 2 and 8 weeks
Description: as §2, with “blood.” for “blood. As shown in the schematic (G), FA-like CD34+ cells were generated by transducing human cord blood CD34+ cells with lentivirus encoding shFANCD2.”, “(J) Colony forming assay of FA-like CD34+ cells with GC1008 treatment.” left out
as §3

FA-like HSPCs = assay: γH2AX and 53BP1 foci after MMC in FA-like HSPCs; assay type: cell-based, human
Description: as §2, with “(J) Colony forming assay of FA-like CD34+ cells with GC1008 treatment.” left out
HSPCs. […] Representative images (F) and quantification (G) of 53BP1 foci are shown.

Fancd2−/− HSPCs = assay: Clonogenic assay of HSPCs in methylcellulose; assay type: cell-based, mouse; conditions: TGF-β1 1 ng/mL, Ab 10 μg/mL or SD208 10 μM; colonies after 7-10 days
Protocol: (A) Expression of phospho-Smad2/3 proteins in HSPCs from WT and Fancd2−/− mice as detected by flow cytometric analysis. (B) Quantification of mean fluorescence intensity (MFI) of phospho-Smad2/3 staining by flow cytometric analysis shown in (A) in HSPCs from WT and Fancd2−/− mice. (C) Fancd2−/− HSPCs are more sensitive to TGF-β1 than WT HSPCs. Sorted Lin− cells from WT or Fancd2−/− mice were exposed to TGF-β1. After 5 days in culture, LSK cells were analyzed by flow cytometry and quantified. Data are shown after normalizing to untreated WT group. […] Sorted Lin− cells from WT and Fancd2−/− mice were exposed to TGF-β1 (1 ng/mL) with or without TGF-beta 1,2,3 Ab (10 μg/mL) or SD208 (10 μM), and viable cells were counted after 5 days in culture. Data shown are after normalizing to untreated WT group. Error bars represent mean±s.e.m. (F) Clonogenic assay of WT and Fancd2−/− HSPCs treated with TGF-β1, TGF-beta 1, 2, 3 Ab or SD208. […] Hematopoietic colonies were counted after 7-10 days in culture. […] (I) Representative FACS plots of LSK cells analyzed by flow cytometry for GFP expression after 5 days in vitro culture in stem cell culture medium. […] Luciferase activity was measured. (L) Binding of FANCD2 to SMAD1 promoter (region −2108 to −1950 bp) upon DNA damage as detected by ChIP assay using anti-FANCD2 antibody in corrected GM6914 (+FANCA) but not GM6914 (+Vector) fibroblast cells. […]

[8] = mice pretreated in vivo, LT-HSCs isolated

O=C(NOC[C@H](O)CO)c1ccc(F)c(F)c1Nc1ccc(I)cc1F [PD0325901]
clonogenicity / colony forming capacity of Fancd2−/− stromal cells [1]: significantly increased the clonogenicity | clonogenicity / colony forming capacity of Fancd2−/− stromal cells ([1]; listed as Mek-i): improved | Erk1/2 phosphorylation (Fancd2−/− stromal cells; mouse stromal cells exposed to MEK inhibitor): inhibition of Erk1/2 phosphorylation; also recorded: reduces p-Erk1/2 expression

COc1cc2c(cc1OC)CN(C(=O)/C=C/c1c(-c3ccccc3)n(C)c3ncccc13)CC2 [SIS3]
NHEJ activity (U2OS cells [2]): decreased NHEJ | phosphorylation of DNA-PK (U2OS cells [3]): blocks phosphorylation of DNA-PK | FA cells survival in the presence of MMC ([4]; FA cell lines with inhibitor): improved FA cells survival in the presence of MMC | cytotoxicity of corrected FA cells ([4]; corrected FA cells): do not significantly alter cytotoxicity of corrected FA cells

Cc1cccc(-c2nn3c(c2-c2ccnc4ccc(C(N)=O)cc24)CCC3)n1 [Galunisertib]
pIpC-induced DNA damage in LT-HSCs, comet assay (Fancd2-deficient mice; [8]): rescued the pIpC-induced DNA damage | pIpC-induced DNA damage, gamma H2AX foci (Fancd2-deficient mice; [8]): rescued the pIpC-induced DNA damage | physiological stress-induced bone marrow failure (Fancd2-deficient mice; mice, pIpC, pretreated in vivo): rescues physiological stress-induced bone marrow failure

GC1008: anti-human TGF-β neutralizing antibody
clonogenic defects of primary HSPCs from FA patients [5]: rescued the clonogenic defects | clonogenic capacity of FA-like HSPCs [6]: markedly rescuing the clonogenic capacity | engraftment of primary FA-like CD34+ cells [7]: enhanced the engraftment | number of FA-like HSPCs with 53BP1 foci (FA-like HSPCs; MMC 100 ng/mL 2 h, 24 h recovery): significantly reduced | number of FA-like HSPCs with γH2AX foci (FA-like HSPCs; MMC 100 ng/ml 2 hrs, 24 hrs recovery): significantly reduced

TGF-β1: recombinant TGFβ1 cytokine (human from ProPeptide, mouse from R&D)
phosphorylation of DNA-PK (U2OS cells [3]): activated phosphorylation of DNA-PK | clonogenic ability of Fancd2−/− HSPCs (Fancd2−/− HSPCs): inhibited | pErk1/2 after mTGFβ1 exposure (Fancd2−/− stromal cells; FA stromal cells): further activated pErk1/2
